The numbers were not newly measured in US20060063794A1, “Method of attenuating graft rejection” (Fujisawa Pharmaceutical Co., Ltd., priority 2004, published 2006), which cites them from elsewhere.

The conditions of data set [1]: MMF 2 g/day in addition to Tacrolimus and corticosteroid; cited from earlier work.
The next data set has as its system rat cardiac allografts. To be noted: rats, 20 mg/kg for ten days; cited from earlier work.

In the case of `COc1c(C)c2c(c(O)c1C/C=C(\C)CCC(=O)OCCN1CCOCC1)C(=O)OC2` [MMF], the AR rate in data set [1] is 7.1%. As to `N#Cc1ccc(NC(=O)C(C#N)C(=O)C2CC2)cc1` (centres unmarked) [MNA 279, reference compound], the “Prolongation of graft survival” value in the data set with rat cardiac allografts was “about two”.
